For the assay, the target named is T1, Smc1/Smc3 heterodimer with Scc1-C (cohesin) (Saccharomyces cerevisiae, UniProt P32908+P47037, P32908:K39I, form not given).
T1 construct: N-terminal tags; Sf9 insect cells; fluorescently labelled for MST; with Sister chromatid cohesion protein 1
T1 sequence (P32908 1-1225 K39I): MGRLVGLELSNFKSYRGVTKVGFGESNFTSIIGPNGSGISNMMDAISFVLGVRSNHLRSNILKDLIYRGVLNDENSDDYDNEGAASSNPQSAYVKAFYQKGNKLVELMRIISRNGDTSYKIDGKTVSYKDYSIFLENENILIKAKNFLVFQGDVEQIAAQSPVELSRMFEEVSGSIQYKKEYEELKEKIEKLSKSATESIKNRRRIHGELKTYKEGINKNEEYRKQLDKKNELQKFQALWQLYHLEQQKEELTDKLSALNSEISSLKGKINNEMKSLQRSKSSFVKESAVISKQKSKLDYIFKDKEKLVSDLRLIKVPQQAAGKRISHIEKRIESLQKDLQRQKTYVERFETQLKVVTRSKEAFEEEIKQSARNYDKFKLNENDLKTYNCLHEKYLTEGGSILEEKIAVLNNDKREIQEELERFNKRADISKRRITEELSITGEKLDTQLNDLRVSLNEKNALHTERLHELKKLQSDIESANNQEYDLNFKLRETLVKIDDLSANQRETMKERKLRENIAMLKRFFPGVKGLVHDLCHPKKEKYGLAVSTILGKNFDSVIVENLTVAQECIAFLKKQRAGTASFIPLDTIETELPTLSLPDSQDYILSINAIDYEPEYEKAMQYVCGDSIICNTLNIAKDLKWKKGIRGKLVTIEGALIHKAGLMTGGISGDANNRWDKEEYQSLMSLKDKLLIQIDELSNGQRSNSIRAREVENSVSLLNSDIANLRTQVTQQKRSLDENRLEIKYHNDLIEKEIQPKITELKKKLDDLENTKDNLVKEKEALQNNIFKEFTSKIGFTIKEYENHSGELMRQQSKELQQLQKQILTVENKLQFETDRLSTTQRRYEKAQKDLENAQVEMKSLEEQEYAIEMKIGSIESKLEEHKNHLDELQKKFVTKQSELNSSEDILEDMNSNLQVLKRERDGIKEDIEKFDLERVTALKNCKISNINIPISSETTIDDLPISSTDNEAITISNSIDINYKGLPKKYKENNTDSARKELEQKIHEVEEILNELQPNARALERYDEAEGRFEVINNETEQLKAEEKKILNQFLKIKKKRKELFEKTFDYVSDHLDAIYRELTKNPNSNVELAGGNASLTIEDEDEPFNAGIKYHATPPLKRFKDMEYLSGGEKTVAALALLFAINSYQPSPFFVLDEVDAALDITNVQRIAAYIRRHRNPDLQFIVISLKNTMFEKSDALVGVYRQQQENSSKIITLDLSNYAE
T1 sequence (P47037 1-1230): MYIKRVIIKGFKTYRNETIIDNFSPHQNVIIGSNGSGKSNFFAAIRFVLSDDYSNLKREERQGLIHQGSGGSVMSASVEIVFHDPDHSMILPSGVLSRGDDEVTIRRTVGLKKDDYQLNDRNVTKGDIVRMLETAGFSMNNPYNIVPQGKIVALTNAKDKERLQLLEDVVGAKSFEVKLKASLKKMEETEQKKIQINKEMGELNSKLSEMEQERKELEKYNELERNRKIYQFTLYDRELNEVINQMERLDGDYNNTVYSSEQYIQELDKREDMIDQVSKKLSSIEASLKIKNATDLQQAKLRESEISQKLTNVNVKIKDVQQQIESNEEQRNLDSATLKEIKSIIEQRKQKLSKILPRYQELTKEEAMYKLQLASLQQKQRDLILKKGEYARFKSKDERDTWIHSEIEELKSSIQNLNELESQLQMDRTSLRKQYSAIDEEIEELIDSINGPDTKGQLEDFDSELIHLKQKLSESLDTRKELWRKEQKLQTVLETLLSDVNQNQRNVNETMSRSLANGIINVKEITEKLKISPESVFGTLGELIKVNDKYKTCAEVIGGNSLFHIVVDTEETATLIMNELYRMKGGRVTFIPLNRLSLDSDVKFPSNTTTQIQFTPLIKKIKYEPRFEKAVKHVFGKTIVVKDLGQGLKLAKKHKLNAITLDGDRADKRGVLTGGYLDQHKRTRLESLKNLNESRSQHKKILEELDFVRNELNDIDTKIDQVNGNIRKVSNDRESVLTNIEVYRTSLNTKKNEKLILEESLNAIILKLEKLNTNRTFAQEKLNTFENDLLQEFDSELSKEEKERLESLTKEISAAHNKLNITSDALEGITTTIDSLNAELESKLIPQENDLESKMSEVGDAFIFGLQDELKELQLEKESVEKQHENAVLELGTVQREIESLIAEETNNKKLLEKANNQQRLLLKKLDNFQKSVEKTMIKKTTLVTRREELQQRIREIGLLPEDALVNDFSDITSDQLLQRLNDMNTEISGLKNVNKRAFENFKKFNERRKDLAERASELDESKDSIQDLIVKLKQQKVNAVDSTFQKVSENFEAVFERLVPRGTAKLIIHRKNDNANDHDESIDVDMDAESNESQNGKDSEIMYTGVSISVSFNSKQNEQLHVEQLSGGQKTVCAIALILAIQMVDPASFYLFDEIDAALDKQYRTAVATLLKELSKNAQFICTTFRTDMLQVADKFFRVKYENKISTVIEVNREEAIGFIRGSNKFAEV
T1 sequence (Q12158 1-566 partner): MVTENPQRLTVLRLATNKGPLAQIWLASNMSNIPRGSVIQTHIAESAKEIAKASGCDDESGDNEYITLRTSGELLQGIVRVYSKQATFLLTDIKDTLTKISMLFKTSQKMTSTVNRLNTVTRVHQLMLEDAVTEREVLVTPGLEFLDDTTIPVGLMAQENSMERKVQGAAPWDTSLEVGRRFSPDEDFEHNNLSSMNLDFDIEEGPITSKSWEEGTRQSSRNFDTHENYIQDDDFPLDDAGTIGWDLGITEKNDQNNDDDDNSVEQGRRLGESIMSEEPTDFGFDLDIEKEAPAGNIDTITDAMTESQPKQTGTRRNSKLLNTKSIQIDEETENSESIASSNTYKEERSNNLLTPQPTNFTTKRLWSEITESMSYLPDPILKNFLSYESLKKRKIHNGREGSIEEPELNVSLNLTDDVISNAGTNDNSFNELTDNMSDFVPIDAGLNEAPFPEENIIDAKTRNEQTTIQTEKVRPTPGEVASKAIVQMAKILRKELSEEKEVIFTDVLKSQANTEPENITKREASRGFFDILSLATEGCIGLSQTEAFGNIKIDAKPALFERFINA
The assay can be described thus: microscale thermophoresis. As to conditions: fluorescently labelled protein; Smc1 co-purified with Scc1-C, plus Smc3; binding abrogated. In general terms: MST reads how a fluorescent partner responds to local heating, with and without ligand.

As for `Nc1ncnc2c1ncn2[C@@H]1O[C@H](COP(=O)(O)OP(=O)(O)OP(=O)(O)O)[C@@H](O)[C@H]1O` [ATP], the microscale thermophoresis entry is “each of the Walker A mutations efficiently abrogated binding to ATP and ADP”.

Turning to `Nc1ncnc2c1ncn2[C@@H]1O[C@H](COP(=O)(O)OP(=O)(O)O)[C@@H](O)[C@H]1O` [ADP], the microscale thermophoresis result was “each of the Walker A mutations efficiently abrogated binding to ATP and ADP”.

These data come from article PMC4769319, “Cohesin Releases DNA through Asymmetric ATPase-Driven Ring Opening” (Molecular Cell, 2016).
